Measurements published in ChEMBL document CHEMBL1139797, “Conversion of the LXR-agonist TO-901317--from inverse to normal modulation of gamma-secretase by addition of a carboxylic acid and a lipophilic anchor” (Bioorg Med Chem Lett, 2007).
Active and inactive are the calls of the source. The rule behind the calls is not given here.

Tests used:
Format in all cases: cell-based
Gamma-secretase [1] = experiment: (§1) Effect on gamma-secretase activity in human H4 cells expressing APP695 assessed as reduction of Amyloid beta-40 formation LPECL assay
Gamma-secretase [2] = experiment: Effect on gamma-secretase activity in human H4 cells expressing APP695 assessed as reduction of Amyloid beta-38 formation by LPECL assay
Gamma-secretase [3] = experiment: Effect on gamma-secretase activity in human H4 cells expressing APP695 assessed as increase in Amyloid beta-42 formation LPECL assay
H4 = experiment: Cytotoxicity against human H4 cells assessed as reduction of viability
[4] = biological target: Gamma-secretase (Homo sapiens) (UniProt Q96BI3+Q9NZ42+Q8WW43+P49768+Q92542+P49810); experiment: as §1
Gamma-secretase [5] = experiment: Effect on gamma-secretase activity in human H4 cells expressing APP695 assessed as increase in Amyloid beta38 formation by LPECL assay
Gamma-secretase [6] = experiment: Effect on gamma-secretase activity in human H4 cells expressing APP695 assessed as reduction of Amyloid beta-42 formation LPECL assay

| Structure (SMILES) | IC50 (Gamma-secretase [1]) [µM] | IC50 (Gamma-secretase [2]) [µM] | EC50 (Gamma-secretase [3]) [µM] | Activity (H4) [µM] | Activity [4] | EC50 (Gamma-secretase [5]) [µM] | IC50 (Gamma-secretase [6]) [µM] |
| --- | --- | --- | --- | --- | --- | --- | --- |
| O=S(=O)(c1ccccc1)N(CC(F)(F)F)c1ccc(C(O)(C(F)(F)F)C(F)(F)F)cc1 [T091317] | > 40 | 4.5 | 3.6 |  |  |  |  |
| CCCCCCCCN(c1ccc(OCC(=O)OC(C)(C)C)cc1)S(=O)(=O)c1cc(C(F)(F)F)cc(C(F)(F)F)c1 | > 40 | 13.3 | 6.2 | > 40 |  |  |  |
| Cc1ccc(S(=O)(=O)n2c3ccc(Cl)cc3c3ccc(C(C)C(=O)OCc4ccccc4)cc32)cc1 (stereo not given) |  | 20 | 20 | > 40 | inactive |  |  |
| CCCCCCCCCCn1c2ccccc2c2ccc(OCC(=O)O)cc21 |  |  |  | > 40 |  |  |  |
| CC(C)c1cc(C(C)C)c(S(=O)(=O)n2c3ccccc3c3ccc(OCC(=O)O)cc32)c(C(C)C)c1 |  |  |  | 20 |  | 7.8 |  |
| CC(C)(C)OC(=O)COc1ccc(NS(=O)(=O)c2cc(C(F)(F)F)cc(C(F)(F)F)c2)cc1 | > 40 | > 40 | 10.6 | > 40 |  |  |  |
| CC(C)c1cc(C(C)C)c(S(=O)(=O)n2c3ccc(Cl)cc3c3ccc(C(C)C(=O)O)cc32)c(C(C)C)c1 (stereo not given) |  |  |  | 40 |  | 9.3 |  |
| CCCCCCCCN(c1ccc(OCC(=O)O)cc1)S(=O)(=O)c1cc(C(F)(F)F)cc(C(F)(F)F)c1 | > 40 |  |  | 40 |  | 23.7 | 19.6 |
| CCCCCCCCCCn1c2ccc(Cl)cc2c2ccc(C(C)C(=O)O)cc21 (stereo not given) |  |  |  | 40 |  | 5.8 |  |
| CC(C(=O)OCc1ccccc1)c1ccc2c3cc(Cl)ccc3n(S(=O)(=O)c3cc(C(F)(F)F)cc(C(F)(F)F)c3)c2c1 (stereo not given) | > 40 | > 20 | > 20 | > 40 |  |  |  |
